Laboratory results published in US20050020616A1, “Aryl fused azapolycyclic compounds” (Pfizer Inc, priority 2003, published 2005).
Counter-ions that a name gives are not always drawn.

melting point: 252 °C
Compound: O=[N+]([O-])c1ccc2c(c1)C1CCC2CNC1 (stereo not shown) (as salt: hydrochloride)
